Measurements as given in patent US20050112573A1, “Method of detecting toxic substance” (priority 2001, published 2005).

System: yeast genes (level of expressed mRNA)
Experiment: DNA chip analysis of expressed mRNA of yeast genes after 2 h culture with a toxic chemical substance
Format: cell-based, Saccharomyces cerevisiae S288C
Description: Yeast (Saccharomyces cerevtisiae S288C (α SUC2mal mel gap2 CUP1)) were cultured at 25° C. on YPD medium (yeast extract 1%, polypepton 2%, glucose 2%). One of toxic chemical substances was added to the cell at logarithmic growth phase, and the cell was further cultured for two hours. Cell was cultured without any chemical substance in the same condition, and was used as control. Concentrations of the chemical substances were defined to inhibit the growth of the yeast but not lead to death.
After the completion of cultivation, the culture was centrifuged to collect the cells. To the cells, sodium acetate buffer (50 mM sodium acetate, 10 mM EDTA, 1% SDS) was added, and the mixture was shaken at 65° C. for five minutes, followed by returning to room temperature, and obtaining the supernatant, which procedure was repeated two times. To the supernatant, ½ amount of a solution of phenol/chloroform was added, and the mixture was centrifuged to give a supernatant, which was added with an equal amount of chloroform, and the mixture was centrifuged to give a supernatant. To the supernatant, an equal amount of isopropanol containing 0.3 M sodium acetate was added, and the mixture was allowed to stand at room temperature for 30 minutes, after which the mixture was centrifuged to give a sediment of the whole RNAs. Seventy % ethanol was added to the sediment, and the mixture was again centrifuged to give a sediment, which was then dried and dissolved in water. mRNA was isolated from the whole RNAs as followings. In view of the fact that a poly A chain is attached to the 3′ terminus of mRNA, a polynucleotide having a poly T structure which was immobilized on the surface of latex beads was used to trap the mRNA, and then the mRNA was washed and eluted with spine column (Oligotex-dT30<Super>mRNA Purification Kit, Takara). Reverse transcription of the mRNA was conducted with a reverse transcriptase (Super Script II Reverse Transcriptase; catalogue No. 18064-014, GibcoBRL) using fluorescence-labeled nucleotides to give cDNAs that were introduced with Cy3-dUTP or Cy5-dUTP during the reverse transcription.
The labeled cDNAs were dissolved in TE buffer (10 mM Tris-HCl/1 mM EDTA, pH8.0), and the solution was dropped on the DNA chip containing the whole genes of yeast (DNA Chip Research Inc. Japan) so that the cDNAs were hybridized on the DNA chip at 65° C. for over 12 hours. The fluoresces intensity of the DNA chip was read with a scanner, and the ratio relative to the fluorescence intensity resulting from the absence of chemical substance was estimated as the following, which is shown in Tables 1 to 9: [formula]
In the Tables, “Intensity” indicated in the rightmost column is a value of the level of expressed mRNA of each gene in control cells as divided by the average level of the expressions of the whole genes.

Substance: γ-hexachlorocyclohexane [(7)]
- The level of expressed mRNA in the presence of chemical substance/ (yeast gene YFL010C, ratio to control without chemical substance, 2 h culture): 1.5
- The level of expressed mRNA in the presence of chemical substance/ (yeast gene YFL024C, ratio to control without chemical substance, 2 h culture): 3.3
- The level of expressed mRNA in the presence of chemical substance/The level of expressed mRNA in the absence of chemical substance (yeast gene YFL028C): 2.0
- The level of expressed mRNA in the presence of chemical substance/ (yeast gene YFL032W, ratio to control without chemical substance, 2 h culture): 1.1
- The level of expressed mRNA in the presence of chemical substance/The level of expressed mRNA in the absence of chemical substance (yeast gene YFL043C): 1.8
- The level of expressed mRNA in the presence of chemical substance/in the absence of chemical substance (yeast gene YGL035C): 1.2
- The level of expressed mRNA in the presence of chemical substance/ (yeast gene YGL037C, ratio to control without chemical substance, 2 h culture): 2.9
- The level of expressed mRNA in the presence of chemical substance/ (yeast gene YGL047W, ratio to control without chemical substance, 2 h culture): 1.7
- The level of expressed mRNA in the presence of chemical substance/ (yeast gene YGL053W, ratio to control without chemical substance, 2 h culture): 3.7
- The level of expressed mRNA in the presence of chemical substance/ (yeast gene YGL121C, ratio to control without chemical substance, 2 h culture): 4.7
- The level of expressed mRNA in the presence of chemical substance/The level of expressed mRNA in the absence of chemical substance (yeast gene YGL158W): 1.3
- The level of expressed mRNA in the presence of chemical substance/ (yeast gene YGL199C, ratio to control without chemical substance, 2 h culture): 1.3
- The level of expressed mRNA in the presence of chemical substance/The level of expressed mRNA in the absence of chemical substance (yeast gene YGL229C): 2.2
- The level of expressed mRNA in the presence of chemical substance/ (yeast gene YGR101W, ratio to control without chemical substance, 2 h culture): 1.5
- The level of expressed mRNA in the presence of chemical substance/ (yeast gene YGR110W, ratio to control without chemical substance, 2 h culture): 1.7
- The level of expressed mRNA in the presence of chemical substance/ (yeast gene YGR130C, ratio to control without chemical substance, 2 h culture): 1.3
- The level of expressed mRNA in the presence of chemical substance/The level of expressed mRNA in the absence of chemical substance (yeast gene YGR136W): 1.5
- The level of expressed mRNA in the presence of chemical substance/ (yeast gene YGR154C, ratio to control without chemical substance, 2 h culture): 2.0
- The level of expressed mRNA in the presence of chemical substance/The level of expressed mRNA in the absence of chemical substance (yeast gene YGR189C): 0.6
- The level of expressed mRNA in the presence of chemical substance/The level of expressed mRNA in the absence of chemical substance (yeast gene YGR213C): 7.0
- The level of expressed mRNA in the presence of chemical substance/ (yeast gene YGR221C, ratio to control without chemical substance, 2 h culture): 1.2
- The level of expressed mRNA in the presence of chemical substance/The level of expressed mRNA in the absence of chemical substance (yeast gene YGR257C): 2.4
- The level of expressed mRNA in the presence of chemical substance/in the absence of chemical substance (yeast gene YGR287C): 2.2
- The level of expressed mRNA in the presence of chemical substance/The level of expressed mRNA in the absence of chemical substance (yeast gene YHR004C): 1.5
- The level of expressed mRNA in the presence of chemical substance/The level of expressed mRNA in the absence of chemical substance (yeast gene YHR071W): 1.0
- The level of expressed mRNA in the presence of chemical substance/ (yeast gene YHR138C, ratio to control without chemical substance, 2 h culture): 3.0
- The level of expressed mRNA in the presence of chemical substance/The level of expressed mRNA in the absence of chemical substance (yeast gene YHR139C): 1.5
- The level of expressed mRNA in the presence of chemical substance/The level of expressed mRNA in the absence of chemical substance (yeast gene YHR142W): 0.9
- The level of expressed mRNA in the presence of chemical substance/ (yeast gene YHR199C, ratio to control without chemical substance, 2 h culture): 1.1
- The level of expressed mRNA in the presence of chemical substance/ (yeast gene YIL023C, ratio to control without chemical): 1.2
- The level of expressed mRNA in the presence of chemical substance/ (yeast gene YIL041W, ratio to control without chemical substance, 2 h culture): 0.8
- The level of expressed mRNA in the presence of chemical substance/ (yeast gene YIL087C, ratio to control without chemical substance, 2 h culture): 1.8
- The level of expressed mRNA in the presence of chemical substance/The level of expressed mRNA in the absence of chemical substance (yeast gene YIL123W): 0.5
- The level of expressed mRNA in the presence of chemical substance/The level of expressed mRNA in the absence of chemical substance (yeast gene YIL140W): 0.5
- The level of expressed mRNA in the presence of chemical substance/ (yeast gene YJL057C, ratio to control without chemical substance, 2 h culture): 2.7
- The level of expressed mRNA in the presence of chemical substance/ (yeast gene YJL066C, ratio to control without chemical substance, 2 h culture): 1.6
- The level of expressed mRNA in the presence of chemical substance/in the absence of chemical substance (yeast gene YJL070C): 1.4
- The level of expressed mRNA in the presence of chemical substance/ (yeast gene YJL082W, ratio to control without chemical substance, 2 h culture): 0.4
- The level of expressed mRNA in the presence of chemical substance/The level of expressed mRNA in the absence of chemical substance (yeast gene YJL089W): 1.1
- The level of expressed mRNA in the presence of chemical substance/The level of expressed mRNA in the absence of chemical substance (yeast gene YJL116C): 0.8
- The level of expressed mRNA in the presence of chemical substance/ (yeast gene YJL151C, ratio to control without chemical substance, 2 h culture): 1.4
- The level of expressed mRNA in the presence of chemical substance/ (yeast gene YJL152W, ratio to control without chemical substance, 2 h culture): 1.2
- The level of expressed mRNA in the presence of chemical substance/ (yeast gene YJL161W, ratio to control without chemical substance, 2 h culture): 3.6
- The level of expressed mRNA in the presence of chemical substance/in the absence of chemical substance (yeast gene YJL167W): 1.5
- The level of expressed mRNA in the presence of chemical substance/ (yeast gene YJL171C, ratio to control without chemical substance, 2 h culture): 1.4
- The level of expressed mRNA in the presence of chemical substance/in the absence of chemical substance (yeast gene YJL216C): 1.5
- The level of expressed mRNA in the presence of chemical substance/The level of expressed mRNA in the absence of chemical substance (yeast gene YJR004C): 0.4
- The level of expressed mRNA in the presence of chemical substance/ (yeast gene YJR008W, ratio to control without chemical substance, 2 h culture): 2.9
- The level of expressed mRNA in the presence of chemical substance/ (yeast gene YJR054W, ratio to control without chemical): 0.9
- The level of expressed mRNA in the presence of chemical substance/The level of expressed mRNA in the absence of chemical substance (yeast gene YJR086W): 1.7
- The level of expressed mRNA in the presence of chemical substance/The level of expressed mRNA in the absence of chemical substance (yeast gene YKL008C): 1.4
- The level of expressed mRNA in the presence of chemical substance/The level of expressed mRNA in the absence of chemical substance (yeast gene YKL013C): 1.8
- The level of expressed mRNA in the presence of chemical substance/The level of expressed mRNA in the absence of chemical substance (yeast gene YKL039W): 2.0
- The level of expressed mRNA in the presence of chemical substance/The level of expressed mRNA in the absence of chemical substance (yeast gene YKL041W): 1.0
- The level of expressed mRNA in the presence of chemical substance/ (yeast gene YKL071W, ratio to control without chemical substance, 2 h culture): 3.7
- The level of expressed mRNA in the presence of chemical substance/ (yeast gene YKL086W, ratio to control without chemical): 0.7
